Experimental data taken from patent US20250134870A1, “PATHWAY MODULATOR, PHARMACEUTICAL COMPOSITION HAVING SAME, USE THEREOF, AND THERAPEUTIC METHOD USING SAME” (Jiangsu Yahong Meditech Co., Ltd., priority 2021, published 2025).

Assays:
[1] = system: imiquimod (IMQ)-induced psoriasis; assay: Imiquimod (IMQ)-induced psoriasis in mice: erythema, scales, thickness, total score, AUC (Example 8); type: in vivo, Balb/c mice; parameters: key to erythema score / scales score / thickness score: 0 = none, 1 = mild, 2 = moderate, 3 = obvious/severe; key to total score of erythema + scales + thickness: sum of three 0-3 scores (erythema + scales + thickening), 0-9
Method: All mice were shaved with a pet shaver to get an area of 2×3 cm on the back one day before the start of the experiment.
65 animals were randomly divided into groups according to body weight, and the dosing regimen was as follows.
Imiquimod (IMQ) cream: 62.5 mg of IMQ cream for each mouse in G2 to G7; Dexamethasone (DEX) ointment: 70 mg of ointment for each mouse in G4;
Tofacitinib: Tofacitinib was dissolved in dimethyl sulfoxide to 5 mg/mL, and 50 μL was added to IMQ cream for daily treatment.
Mice in Groups 2 to 7 received daily topical doses of 62.5 mg of IMQ cream on their shaved back from Day 0 to Day 7.
Dosing of the test compounds and reference substance was carried out according to Table 29 for 7 consecutive days.
To assess the severity of inflammation of skin on the back, the skin on the back was scored according to Table 30. Erythema, scales and thickening were scored independently on a scale of 0 to 3, 0, none; 1. mild; 2. moderate; 3. obvious/severe.
The inhibition rate was calculated according to the following formula: Inhibition rate=[AUC (solvent)−AUC (treatment)]/AUC (solvent)×100%. Wherein, solvent referred to the solvent group corresponding to the route of administration.

[2] = system: 2,4-dinitrobenzenesulfonic acid (DNBS)-induced colitis; assay: DNBS-induced enteritis/colitis in rats: body weight and stool score (Example 10); type: in vivo, Wistar rats; details: 3, 10 and 30 mg/kg
Method: The 90 animals were randomly grouped on Day-1 (i.e., the day before the experiment) based on animal body weight to ensure that the body weight of each group of animals were similar, so as to reduce bias. Rats were fasted for 40 hours before the experiment and were injected subcutaneously with 5% glucose saline (10 mL/kg, once daily) during fasting. • Experimental grouping:
On Day 1 of the experiment, fasting rats were anesthetized by intraperitoneal injection with Zoletil (25 mg/kg Tiletamine and 25 mg/kg Zolazepam) and 5 mg/kg Xylazine.
In groups G2-G6, a hose was inserted from the anus to left colic flexure (about 8 cm from the anus) and colitis was induced by DNBS enema (0.5 mL/animal) in rats. The normal control group (G1) received 30% ethanol enema by the same process. The head of the animal after enema was lowered for 15 min, and then the animal was kept in Trendelenburg position until waked to avoid backflow of the enema fluid.
The percentage of body weight was calculated according to the following formula: (body weight on Day X-initial weight)/initial weight]×100%.
(2) Stool score: during the experiment, the stool state of rats was scored daily (0=normal, 1=wet/sticky, 2=loose, 3=liquid).

[3] = system: 2,4-dinitrobenzenesulfonic acid (DNBS)-induced colitis; assay: DNBS-induced colitis in rats: pathological score of colon tissue (H&E); type: in vivo, Wistar rats
Description: The proximal, ulcer (corresponding sites can be taken, if there was no ulcer) and distal parts of the colon tissue fixed by neutral buffered formalin were embedded with paraffin, sectioned (thickness 5 μm), and histopathological score was given by H&E staining.

congestive heart failure = details: cited from earlier work
[4] = Day 0, 50 mg/kg oral QD (Nepicastat A)
[5] = Day 0, 100 mg/kg topical QD (Nepicastat B)
[6] = Day 0, group Nepicastat A (50 mpk oral)
[7] = Day 0, group Nepicastat B (100 mpk topical)
[8] = Day 1, 50 mg/kg oral QD (Nepicastat A)
[9] = Day 1, 100 mg/kg topical QD (Nepicastat B)
[10] = Day 1, group Nepicastat A (50 mpk oral)
[11] = Day 1, group Nepicastat B (100 mpk topical)
[12] = Day 2, 50 mg/kg oral QD (Nepicastat A)
[13] = Day 2, 100 mg/kg topical QD (Nepicastat B)
[14] = Day 2, group Nepicastat A (50 mpk oral)
[15] = Day 2, group Nepicastat B (100 mpk topical)
[16] = Day 3, 50 mg/kg oral QD (Nepicastat A)
[17] = Day 3, 100 mg/kg topical QD (Nepicastat B)
[18] = Day 3, group Nepicastat A (50 mpk oral)
[19] = Day 3, group Nepicastat B (100 mpk topical)
[20] = Day 4, 50 mg/kg oral QD (Nepicastat A)
[21] = Day 4, 100 mg/kg topical QD (Nepicastat B)
[22] = Day 4, group Nepicastat A (50 mpk oral)
[23] = Day 4, group Nepicastat B (100 mpk topical)
[24] = Day 5, 50 mg/kg oral QD (Nepicastat A)
[25] = Day 5, 100 mg/kg topical QD (Nepicastat B)
[26] = Day 5, group Nepicastat A (50 mpk oral)
[27] = Day 5, group Nepicastat B (100 mpk topical)
[28] = Day 6, 50 mg/kg oral QD (Nepicastat A)
[29] = Day 6, 100 mg/kg topical QD (Nepicastat B)
[30] = Day 6, group Nepicastat A (50 mpk oral)
[31] = Day 6, group Nepicastat B (100 mpk topical)
[32] = Day 7, 50 mg/kg oral QD (Nepicastat A)
[33] = Day 7, 100 mg/kg topical QD (Nepicastat B)
[34] = Day 7, group Nepicastat A (50 mpk oral)
[35] = Day 7, group Nepicastat B (100 mpk topical)
[36] = oral administration 50 mg/kg, Day 5 to Day 7
[37] = mean, G5 Test group 2#, 10 mg/kg PO QD × 7

NCc1c[nH]c(=S)n1[C@H]1CCc2c(F)cc(F)cc2C1 [Nepicastat]
progression and incidence of the disease ([1]; 50 mg/kg oral and 100 mg/kg topical QD × 7 days): did not affect the progression and incidence of the disease, but showed efficacy at the later stages of the disease course (Day 5 to Day 7) | efficacy on the clinical score of the skin ([1]; 100 mpk topical QD × 7 days): no significant efficacy | erythema score [1, 4]: 0 | scales score [1, 4]: 0 | erythema score [1, 5]: 0 | scales score [1, 5]: 0 | thickness score [1, 6]: 0 | total score of erythema + scales + thickness [1, 6]: 0 | thickness score [1, 7]: 0 | total score of erythema + scales + thickness [1, 7]: 0 | erythema score [1, 8]: 0 | scales score [1, 8]: 0 | erythema score [1, 9]: 0 | scales score [1, 9]: 0 | thickness score [1, 10]: 0.6 | total score of erythema + scales + thickness [1, 10]: 0.6 | thickness score [1, 11]: 0.9 | total score of erythema + scales + thickness [1, 11]: 0.9 | erythema score [1, 12]: 1.4 | scales score [1, 12]: 0 | erythema score [1, 13]: 1.5 | scales score [1, 13]: 0 | thickness score [1, 14]: 1.2 | total score of erythema + scales + thickness [1, 14]: 2.6 | thickness score [1, 15]: 1.3 | total score of erythema + scales + thickness [1, 15]: 2.8 | erythema score [1, 16]: 1.5 | scales score [1, 16]: 0 | erythema score [1, 17]: 1.8 | scales score [1, 17]: 0 | thickness score [1, 18]: 1.6 | total score of erythema + scales + thickness [1, 18]: 3.1 | thickness score [1, 19]: 1.5 | total score of erythema + scales + thickness [1, 19]: 3.3 | erythema score [1, 20]: 1.6 | scales score [1, 20]: 1.1 | erythema score [1, 21]: 1.8 | scales score [1, 21]: 1.2 | thickness score [1, 22]: 1.4 | total score of erythema + scales + thickness [1, 22]: 4.1 | thickness score [1, 23]: 1.5 | total score of erythema + scales + thickness [1, 23]: 4.5 | erythema score [1, 24]: 1.6 | scales score [1, 24]: 1.6 | erythema score [1, 25]: 1.7 | scales score [1, 25]: 2.5 | thickness score [1, 26]: 1.3 | total score of erythema + scales + thickness [1, 26]: 4.5 | thickness score [1, 27]: 1.3 | total score of erythema + scales + thickness [1, 27]: 5.5 | erythema score [1, 28]: 1.7 | scales score [1, 28]: 1.9 | erythema score [1, 29]: 1.5 | scales score [1, 29]: 2.4 | thickness score [1, 30]: 1.4 | total score of erythema + scales + thickness [1, 30]: 5 | thickness score [1, 31]: 1.3 | total score of erythema + scales + thickness [1, 31]: 5.2 | erythema score [1, 32]: 1.6 | scales score [1, 32]: 2.1 | erythema score [1, 33]: 1.2 | scales score [1, 33]: 2.1 | thickness score [1, 34]: 1.4 | total score of erythema + scales + thickness [1, 34]: 5.1 | thickness score [1, 35]: 1.4 | total score of erythema + scales + thickness [1, 35]: 4.7 | inhibition at 50 mg/kg ([1]; Mus musculus, 168 h, 50 mpk oral QD × 7 days, vs corresponding solvent group, read-out: inhibition rate (AUC of total clinical score)): 23.6% | therapeutic effect on clinical symptoms ([1]; PO 50 mg/kg QD × 7 days, vs solvent group and control group): mild therapeutic effect on clinical symptoms | erythema [1, 36]: inhibited | thickness [1, 36]: inhibited | erythema ([1]; topical administration 100 mg/kg, Day 4 to Day 7): inhibited | effects on DNBS-induced colitis in rats [2]: certain prophylactic and therapeutic effects | total score of colon tissue injury ([3]; 10 mg/kg (Test group 2#)): significantly reduce | Pathological score, Distal end, Damage [3, 37]: 0.93 | Pathological score, Distal end, Inflammation [3, 37]: 2.07 | Pathological score, Proximal end, Damage [3, 37]: 0.47 | Pathological score, Proximal end, Inflammation [3, 37]: 1.60 | Pathological score, Total score, Damage [3, 37]: 3.53 | Pathological score, Total score, Inflammation [3, 37]: 6.07 | Pathological score, Ulcer end, Damage [3, 37]: 2.13 | Pathological score, Ulcer end, Inflammation [3, 37]: 2.40 | effect in the treatment of heart failure (congestive heart failure; further clinical studies): no effect in the treatment of heart failure | tolerability (congestive heart failure; patients, congestive heart failure): well tolerated in patients
